Experimental data published in the supplement of paper PMC11208160.

assay: recombinant UMI read abundance after kanamycin selection (control-corrected) (log10(CPM+1)); higher = more efficient recombination; extreme values may be limits of the assay; sequences stand for … in AGTGCAGAGAAAATCGGCCAGTTTTCTCTGCCTGCAGTCCGCATGCCGTGGGACCCCTTGGGTTCTAACCTGTTGCCTAGATTTATGCAGCGGACTGCCTTTCTCCCAAAGTGATAAACCGG…AGGTTGGTTTCACT; site = the 11-nt donor
Procedure, shortened: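 In a pooled Escherichia coli screen for the IS621 bridge recombinase, donor and donor-binding-loop pairs were each placed with a 12-nt UMI on a plasmid bearing a promoterless kanamycin gene. This library was co-electroporated with a target plasmid encoding a fixed target and T7-inducible recombinase, and cells were plated either on IPTG (0.07 mM) plus kanamycin or without selection, in two replicates each. Recombinant UMIs were PCR-amplified across the donor–target junction and sequenced, and counts were converted to CPM, averaged over replicates, scaled by control-derived factors and reported as log10(CPM+1).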
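Also: IS621 bridge recombinase in Escherichia coli cells against a fixed T5 target plasmid.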

Sequence	recombinant UMI read abundance (log10)
CGGAATCCATGGACCGGTTTTCCCGGTAATCCGTATTTGTT (site CGGTATCCTGA)	0
CGGAATCCATGGACCGGTTTTCCCGGTAATCCGTATTTGTT (site CGGTGTCCTAA)	0.0136
CGGAATCCATGGACCGGTTTTCCCGGTAATCCGTATTTGTT (site CGTAAGCCTAA)	0.0106
CGGAATCCATGGACCGGTTTTCCCGGTAATCCGTATTTGTT (site CGTAATACTAA)	0.00407
CGGAATCCATGGACCGGTTTTCCCGGTAATCCGTATTTGTT (site CGTAATCCTAA)	0.0103
CGGAATCCATGGACCGGTTTTCCCGGTAATCCGTATTTGTT (site CGTAATCCTAT)	0
CGGAATCCATGGACCGGTTTTCCCGGTAATCCGTATTTGTT (site CGTAATCCTGA)	0
CGGAATCCATGGACCGGTTTTCCCGGTAATCCGTATTTGTT (site CGTAGTCCTAA)	0.00941
CGGAATCCATGGACCGGTTTTCCCGGTAATCCGTATTTGTT (site CGTTATCCTAA)	0.00294
CGGAATCCATGGACCGGTTTTCCCGGTAATCCGTATTTGTT (site CTCAATCCTAA)	0
CGGAATCCATGGACCGGTTTTCCCGGTAATCCGTATTTGTT (site CTGAACCCTAA)	0.0207
CGGAATCCATGGACCGGTTTTCCCGGTAATCCGTATTTGTT (site CTGAATCCTAA)	0.0031
CGGAATCCATGGACCGGTTTTCCCGGTAATCCGTATTTGTT (site CTGAATCCTAC)	0
CGGAATCCATGGACCGGTTTTCCCGGTAATCCGTATTTGTT (site CTGAATCCTCA)	0.0195
CGGAATCCATGGACCGGTTTTCCCGGTAATCCGTATTTGTT (site CTGAATGCTAA)	0.00589
CGGAATCCATGGACCGGTTTTCCCGGTAATCCGTATTTGTT (site CTGACTCCTAA)	0.00378
CGGAATCCATGGACCGGTTTTCCCGGTAATCCGTATTTGTT (site CTGCATCCTAA)	0.0146
CGGAATCCATGGACCGGTTTTCCCGGTAATCCGTATTTGTT (site GAGAATCCTAA)	0.00637
CGGAATCCATGGACCGGTTTTCCCGGTAATCCGTATTTGTT (site GGGAAGCCTAA)	0.0234
CGGAATCCATGGACCGGTTTTCCCGGTAATCCGTATTTGTT (site GGGAATACTAA)	0
CGGAATCCATGGACCGGTTTTCCCGGTAATCCGTATTTGTT (site GGGAATCCTAA)	0
CGGAATCCATGGACCGGTTTTCCCGGTAATCCGTATTTGTT (site GGGAATCCTAT)	0
CGGAATCCATGGACCGGTTTTCCCGGTAATCCGTATTTGTT (site GGGAATCCTGA)	0

Sequence	recombinant UMI read abundance (log10)
CGGAATCCATGGACCGGTTTTCCCGGTAATCCGTATTTGTT (site GGGAGTCCTAA)	0.00491
CGGAATCCATGGACCGGTTTTCCCGGTAATCCGTATTTGTT (site GGGTATCCTAA)	0
CGGAATCCATGGACCGGTTTTCCCGGTAATCCGTATTTGTT (site GGTAATCCTAA)	0
CGGAATCCATGGACCGGTTTTCCCGGTAATCCGTATTTGTT (site TGCAATCCTAA)	0.0105
CGGAATCCATGGACCGGTTTTCCCGGTAATCCGTATTTGTT (site TGGAACCCTAA)	0.0136
CGGAATCCATGGACCGGTTTTCCCGGTAATCCGTATTTGTT (site TGGAATCCTAA)	0
CGGAATCCATGGACCGGTTTTCCCGGTAATCCGTATTTGTT (site TGGAATCCTAC)	0
CGGAATCCATGGACCGGTTTTCCCGGTAATCCGTATTTGTT (site TGGAATCCTCA)	0.00675
CGGAATCCATGGACCGGTTTTCCCGGTAATCCGTATTTGTT (site TGGAATGCTAA)	0.00525
CGGAATCCATGGACCGGTTTTCCCGGTAATCCGTATTTGTT (site TGGACTCCTAA)	0.027
CGGAATCCATGGACCGGTTTTCCCGGTAATCCGTATTTGTT (site TGGCATCCTAA)	0.00352
CGGAATCCATGGACCGGTTTTCCCGGTAATCCGTATTTGTT (site TTGAATCCTAA)	0.00378
CGGAATGCATGGACCGGTTTTCCCGGTAATCCGTATTTGCA (site CGGAATGCTTG)	2.28
CGGAATGCATGGACCGGTTTTCCCGGTAATCCGTATTTGTG (site CGGAATCCTAA)	0
CGGAATGCATGGACCGGTTTTCCCGGTAATCCGTATTTGTG (site CGGAATGCTCA)	2.58
CGGACTCCATGGACCGGTTTTCCCGGTAATCCGTATTTGTT (site CGGAATCCTAA)	0.00938
CGGACTCCATGGACCGGTTTTCCCGGTAATCCGTATTTGTT (site CGGACTCCTAA)	1.58
CGGACTCCATGGACCGGTTTTCCCGGTAATCCGTATTTGTT (site CGGAGTCCTAA)	0.00177
CGGACTCCATGGACCGGTTTTCCCGGTAATCCGTATTTGTT (site CGGATTCCTAA)	0.00394
CGGAGATCATGGACCGGTTTTCCCGGTAATCCGTATTTGGT (site CGGAGATCTAC)	2.19
CGGAGCACATGGACCGGTTTTCCCGGTAATCCGTATTTGAA (site CGGAGCACTTT)	1.77
CGGAGTCCATGGACCGGTTTTCCCGGTAATCCGTATTTGTT (site CGGAATCCTAA)	0.767
CGGAGTCCATGGACCGGTTTTCCCGGTAATCCGTATTTGTT (site CGGACTCCTAA)	0.011

Sequence	recombinant UMI read abundance (log10)
CGGAGTCCATGGACCGGTTTTCCCGGTAATCCGTATTTGTT (site CGGAGTCCTAA)	0.684
CGGAGTCCATGGACCGGTTTTCCCGGTAATCCGTATTTGTT (site CGGATTCCTAA)	0
CGGATACCATGGACCGGTTTTCCCGGTAATCCGTATTTGTT (site CGGAATCCTAA)	0.00671
CGGATACCATGGACCGGTTTTCCCGGTAATCCGTATTTGTT (site CGGATACCTAA)	0
CGGATTGCATGGACCGGTTTTCCCGGTAATCCGTATTTGCT (site CGGATTGCTAG)	1.79
CGGCAGACATGGACCGGTTTTCCCGGTAATCCGTATTTGGT (site CGGCAGACTAC)	1.9
CGGCCCTCATGGACCGGTTTTCCCGGTAATCCGTATTTGCA (site CGGCCCTCTTG)	3.02
CGGCGGACATGGACCGGTTTTCCCGGTAATCCGTATTTGTG (site CGGCGGACTCA)	1.64
CGGCGTTCATGGACCGGTTTTCCCGGTAATCCGTATTTGAC (site CGGCGTTCTGT)	1.69
CGGCTGCCATGGACCGGTTTTCCCGGTAATCCGTATTTGTT (site CGGCTGCCTAA)	0.0892
CGGCTTACATGGACCGGTTTTCCCGGTAATCCGTATTTGTC (site CGGCTTACTGA)	1.65
CGGGAACCATGGACCGGTTTTCCCGGTAATCCGTATTTGAC (site CGGGAACCTAT)	0
CGGGAACCATGGACCGGTTTTCCCGGTAATCCGTATTTGAC (site CGGGAACCTCT)	0
CGGGAACCATGGACCGGTTTTCCCGGTAATCCGTATTTGAC (site CGGGAACCTGT)	0
CGGGAACCATGGACCGGTTTTCCCGGTAATCCGTATTTGAC (site CGGGAACCTTT)	0.0135
CGGGAATCATGGACCGGTTTTCCCGGTAATCCGTATTTGAT (site CGGGAAACTAT)	1.23
CGGGAATCATGGACCGGTTTTCCCGGTAATCCGTATTTGAT (site CGGGAACCTAT)	0
CGGGAATCATGGACCGGTTTTCCCGGTAATCCGTATTTGAT (site CGGGAAGCTAT)	0.284
CGGGAATCATGGACCGGTTTTCCCGGTAATCCGTATTTGAT (site CGGGAATCTAT)	2.01
CGGGACACATGGACCGGTTTTCCCGGTAATCCGTATTTGTC (site CGGGACACTGA)	3.03
CGGGAGCCATGGACCGGTTTTCCCGGTAATCCGTATTTGCC (site CGGGAGACTGG)	0.0249
CGGGAGCCATGGACCGGTTTTCCCGGTAATCCGTATTTGCC (site CGGGAGCCTGG)	0
